Experimental data: ChEMBL document CHEMBL3885861, “Open TG-GATES”

Species: Rattus norvegicus
Assay: Open TG-GATES - Regimen: Single
Format: toxicity, organism-based, Sprague-Dawley
Set-up: regimen Single, gender Male, age 6 weeks
Details: in vivo, po, 5 mg/kg, route gavage, dose level Middle; for APTT / Bas / Eos / Fbg / Hb / Ht / Lym / MCH / MCHC / MCV / Mono / Neu / PT / Plat / RBC / Ret / WBC: tissue Blood; for KIDNEY_L / KIDNEY_R / KIDNEY_TOTAL: tissue Kidney; for ALP / ALT / AST / CRE / Cl / DBIL / GLC / IP / K / LDH / Na / PL / RALB / TBIL / TC / TG / TP / gamma-GTP: tissue Plasma

Work on `COc1cc2c(c(OC)c1OC)-c1ccc(OC)c(=O)cc1[C@@H](NC(C)=O)CC2` [COLCHICINE] yielded an APTT (3 h) of 16.4 s, a Bas (3 h) of 0% and an Eos (3 h) of 0.8%. The Fbg (3 h) was 217.6 mg/dL, the Hb (3 h) was 13.6 g/dL and the Ht (3 h) was 41.3%. For the same molecule, the Lym (3 h) was 83.2%, the MCH (3 h) was 21.9 pg and the MCHC (3 h) was 32.8%. It also gave an MCV (3 h) of 66.5 fL, a Mono (3 h) of 7.2% and a Neu (3 h) of 9.2%. It also gave a PT (3 h) of 12.1 s, a Plat (3 h) of 112.7 x10_4/uL and an RBC (3 h) of 622 x10_4/ul. The Ret (3 h) was 9.5%, the WBC (3 h) was 111.5 x10_2/uL and the KIDNEY_L (3 h) was 0.9 g. It also gave a KIDNEY_R (3 h) of 1 g, a KIDNEY_TOTAL (3 h) of 1.9 g and an ALP (3 h) of 915.6 IU/L. It also gave an ALT (3 h) of 52.6 IU/L, an AST (3 h) of 119.2 IU/L and a CRE (3 h) of 0.4 mg/dL. The Cl (3 h) was 103.4 meq/L, the DBIL (3 h) was 0.046 mg/dL and the GLC (3 h) was 193.4 mg/dL. The IP (3 h) was 9.1 mg/dL, the K (3 h) was 4.5 meq/L and the LDH (3 h) was 248 IU/L. It also gave a Na (3 h) of 139 meq/L, a PL (3 h) of 133.8 mg/dL and an RALB (3 h) of 3.7 g/dL. For the same molecule, the TBIL (3 h) was 0.4 mg/dL, the TC (3 h) was 79.6 mg/dL and the TG (3 h) was 53 mg/dL. For the same molecule, the TP (3 h) was 5.5 g/dL, the gamma-GTP (3 h) was 1 IU/L and the TERMINAL_BW (6 h) was 218.4 g. It also gave an APTT (6 h) of 17.4 s, a Bas (6 h) of 0% and an Eos (6 h) of 0.6%. The Fbg (6 h) was 205.2 mg/dL, the Hb (6 h) was 13.5 g/dL and the Ht (6 h) was 41.4%. For the same molecule, the Lym (6 h) was 72.2%, the MCH (6 h) was 21 pg and the MCHC (6 h) was 32.6%. For the same molecule, the MCV (6 h) was 64.3 fL, the Mono (6 h) was 10.8% and the Neu (6 h) was 16.2%. For the same molecule, the PT (6 h) was 12.5 s, the Plat (6 h) was 107.8 x10_4/uL and the RBC (6 h) was 644.8 x10_4/ul. The Ret (6 h) was 8.9%, the WBC (6 h) was 105.2 x10_2/uL and the KIDNEY_L (6 h) was 1 g. It also gave a KIDNEY_R (6 h) of 1 g, a KIDNEY_TOTAL (6 h) of 1.9 g and an ALP (6 h) of 1038.4 IU/L. It also gave an ALT (6 h) of 103.8 IU/L, an AST (6 h) of 216.8 IU/L and a CRE (6 h) of 0.5 mg/dL. It also gave a Cl (6 h) of 103.2 meq/L, a DBIL (6 h) of 0.048 mg/dL and a GLC (6 h) of 180.2 mg/dL. For the same molecule, the IP (6 h) was 9.4 mg/dL, the K (6 h) was 4.6 meq/L and the LDH (6 h) was 340.6 IU/L. The Na (6 h) was 139.6 meq/L, the PL (6 h) was 118.4 mg/dL and the RALB (6 h) was 3.7 g/dL. It also gave a TBIL (6 h) of 0.4 mg/dL, a TC (6 h) of 64 mg/dL and a TG (6 h) of 35.2 mg/dL. The TP (6 h) was 5.5 g/dL, the gamma-GTP (6 h) was 1 IU/L and the TERMINAL_BW (9 h) was 217.1 g. It also gave an APTT (9 h) of 16.7 s, a Bas (9 h) of 0% and an Eos (9 h) of 1%. The Fbg (9 h) was 207.8 mg/dL, the Hb (9 h) was 13.6 g/dL and the Ht (9 h) was 41.3%. The Lym (9 h) was 67.4%, the MCH (9 h) was 21.5 pg and the MCHC (9 h) was 32.9%. For the same molecule, the MCV (9 h) was 65.4 fL, the Mono (9 h) was 12% and the Neu (9 h) was 20.4%. The PT (9 h) was 12.6 s, the Plat (9 h) was 108.3 x10_4/uL and the RBC (9 h) was 631.6 x10_4/ul. For the same molecule, the Ret (9 h) was 9.1%, the WBC (9 h) was 93.9 x10_2/uL and the KIDNEY_L (9 h) was 1 g. It also gave a KIDNEY_R (9 h) of 1 g, a KIDNEY_TOTAL (9 h) of 2 g and an ALP (9 h) of 1040.6 IU/L. It also gave an ALT (9 h) of 165.4 IU/L, an AST (9 h) of 290.6 IU/L and a CRE (9 h) of 0.5 mg/dL. It also gave a Cl (9 h) of 103.4 meq/L, a DBIL (9 h) of 0.098 mg/dL and a GLC (9 h) of 191.6 mg/dL. The IP (9 h) was 8.8 mg/dL, the K (9 h) was 5.1 meq/L and the LDH (9 h) was 265.2 IU/L. The Na (9 h) was 137 meq/L, the PL (9 h) was 137.6 mg/dL and the RALB (9 h) was 3.7 g/dL. It also gave a TBIL (9 h) of 0.4 mg/dL, a TC (9 h) of 79.2 mg/dL and a TG (9 h) of 32 mg/dL. It also gave a TP (9 h) of 5.4 g/dL, a gamma-GTP (9 h) of 2.2 IU/L and a TERMINAL_BW (24 h) of 226.2 g. For the same molecule, the APTT (24 h) was 16.3 s, the Bas (24 h) was 0% and the Eos (24 h) was 1%. The Fbg (24 h) was 208.6 mg/dL, the Hb (24 h) was 13.6 g/dL and the Ht (24 h) was 41.5%. For the same molecule, the Lym (24 h) was 78.4%, the MCH (24 h) was 21.6 pg and the MCHC (24 h) was 32.8%. The MCV (24 h) was 65.8 fL, the Mono (24 h) was 9.8% and the Neu (24 h) was 10.8%. It also gave a PT (24 h) of 11.2 s, a Plat (24 h) of 117.7 x10_4/uL and an RBC (24 h) of 631.6 x10_4/ul. It also gave a Ret (24 h) of 7.6%, a WBC (24 h) of 120.4 x10_2/uL and a KIDNEY_L (24 h) of 1 g. For the same molecule, the KIDNEY_R (24 h) was 1 g, the KIDNEY_TOTAL (24 h) was 2 g and the ALP (24 h) was 975.4 IU/L. For the same molecule, the ALT (24 h) was 65.4 IU/L, the AST (24 h) was 110.6 IU/L and the CRE (24 h) was 0.6 mg/dL. For the same molecule, the Cl (24 h) was 104 meq/L, the DBIL (24 h) was 0.064 mg/dL and the GLC (24 h) was 191.8 mg/dL. The IP (24 h) was 5.3 mg/dL, the K (24 h) was 4.7 meq/L and the LDH (24 h) was 116 IU/L. For the same molecule, the Na (24 h) was 138 meq/L, the PL (24 h) was 125.4 mg/dL and the RALB (24 h) was 3.7 g/dL. The TBIL (24 h) was 0.4 mg/dL, the TC (24 h) was 71.2 mg/dL and the TG (24 h) was 58 mg/dL. For the same molecule, the TP (24 h) was 5.6 g/dL and the gamma-GTP (24 h) was 1.2 IU/L.
